Results taken from paper PMC11191095, “QSAR Reveals Decreased Lipophilicity of Polar Residues Determines the Selectivity of Antimicrobial Peptide Activity” (ACS Omega, 2024).
In brackets after ≈: the same amount, converted by molar mass. Where a SMILES comes first, the peptide text is derived from it.

Legend:
Assay in all cases: microbe, parasite or virus in culture
K. pneumoniae NCTC 13368 = type: cell-based, Klebsiella pneumoniae; settings: for Modal MIC: K. pneumoniae NCTC 13368 (R)
Experimental: (§1) Antimicrobial activity was evaluated against a panel of 18 pathogens consisting of eight Gram-negative strains (E. coli NCTC 12923, E. coli LEC001, Pseudomonas aeruginosa PAO1, P. aeruginosa NCTC 13437, Acinetobacter baumannii ATCC 17978, A. baumannii AYE, Klebsiella pneumoniae M6, K. pneumoniae NCTC 13368), four Gram-positive strains (Staphylococcus aureus ATCC 9144, S. aureus NCTC 13616, S. aureus USA300, S. aureus 1199B) and six fungi (Candida auris TDG 1912, C. albicans NCPF 8018, C. krusei NCPF 3876, C. tropicalis NCPF 8760, and C. parapsilosis NCPF 3209). Pathogens were grown in noncation adjusted Mueller Hinton broth (MHB, for bacteria) or Roswell Park Memorial Institute (RPMI 1640) + 2% glucose (for fungi) at 37 °C with 180 rpm shaking and maintained on solid media (tryptic soy agar for bacteria and Sabouraud dextrose agar for fungi). For an antibiogram, see Suppl.
(§2) The 46 peptides were serially diluted (128 to 2 μg/mL) in media down polypropylene 96-well plates. Bacteria or fungi, diluted from an overnight culture to an OD600 of 0.01, were added to the serially diluted peptides at a 1:1 ratio resulting in a starting cell density of ∼5 × 10^5 CFU/mL. Plates were incubated at 37 °C for 20 h, and the optical density was determined spectrophotometrically at 600 nm. Minimum inhibition concentrations (MICs) were determined from a minimum of three biological repeats and are reported in μg/mL as well as μM. […] The MIC50 or MIC90 is defined as the lowest peptide concentration that results in 50% or 90% growth inhibition over a 20 h treatment period, respectively.

C. glabrata NCPF 8018 = type: cell-based; settings: NCPF 8018, 20 h
Experimental: as §1, §2

C. krusei NCPF 3876 = type: cell-based; settings: NCPF 3876, 20 h
Experimental: as §1, §2

[1] = system: C. parapsilosis NCPF 3209; type: cell-based; settings: NCPF 3209, 20 h
Experimental: as §1, §2

C. albicans NCPF 3281 = type: cell-based; settings: NCPF 3281, 20 h
Experimental: as §1, §2

C. tropicalis NCPF 8760 = type: cell-based; settings: NCPF 8760, 20 h
Experimental: as §1, §2

[2] = system: S. aureus (MRSA) NCTC 13616; type: cell-based, Staphylococcus aureus; settings: for Modal MIC: S. aureus (MRSA) NCTC 13616 (R)
Experimental: as §1, §2

S. aureus (MRSA) 1199B = type: cell-based, Staphylococcus aureus; settings: for Modal MIC: S. aureus (MRSA) 1199B (R)
Experimental: as §1, §2

S. aureus (MRSA) USA300 = type: cell-based, Staphylococcus aureus; settings: S. aureus (MRSA) USA300 (R)
Experimental: as §1, §2

P. aeruginosa NCTC 13437 = type: cell-based, Pseudomonas aeruginosa; settings: for Modal MIC: P. aeruginosa NCTC 13437 (R)
Experimental: as §1, §2

C. auris TDG 1912 = type: cell-based, Candida auris; settings: TDG 1912, 20 h
Experimental: as §1, §2

A. baumannii AYE = type: cell-based, Acinetobacter baumannii; settings: for Modal MIC: A. baumannii AYE (R)
Experimental: as §1, §2

K. pneumoniae M6 = type: cell-based, Klebsiella pneumoniae
Experimental: as §1, §2

E. coli NCTC 12923 = type: cell-based, Escherichia coli
Experimental: as §1, §2

E. coli LEC001 = type: cell-based, Escherichia coli
Experimental: as §1, §2

[3] = system: S. aureus (MSSA) ATCC 9144; type: cell-based, Staphylococcus aureus; settings: 20 h
Experimental: as §1, §2

P. aeruginosa PAO1 = type: cell-based, Pseudomonas aeruginosa
Experimental: as §1, §2

A. baumannii ATCC 17978 = type: cell-based, Acinetobacter baumannii
Experimental: as §1, §2

[4] = MHB, 37 °C, 20 h, OD600, min. three biological repeats

## CC[C@H](C)[C@H](NC(=O)[C@@H](N)CCCCN)C(=O)N[C@@H](C)C(=O)N[C@@H](CCCCN)C(=O)N[C@H](C(=O)N[C@@H](C)C(=O)N[C@@H](CC(C)C)C(=O)N[C@@H](CCCCN)C(=O)N[C@@H](C)C(=O)N[C@@H](CC(C)C)C(N)=O)C(C)C [DRAMP02273a] (H-KIAKVALKAL-NH2)
K. pneumoniae NCTC 13368; [4]
  Modal MIC: > 128 µg/mL
K. pneumoniae NCTC 13368; shown in µM
  Modal MIC: > 117.5 µM
C. glabrata NCPF 8018
  Modal MIC50: > 117.5 µM
  Modal MIC90: > 117.5 µM
C. krusei NCPF 3876
  Modal MIC50: > 117.5 µM
  Modal MIC90: > 117.5 µM
[1]
  Modal MIC50: > 117.5 µM
  Modal MIC90: > 117.5 µM
C. albicans NCPF 3281
  Modal MIC50: > 117.5 µM
  Modal MIC90: > 117.5 µM
C. tropicalis NCPF 8760
  Modal MIC50: > 117.5 µM
  Modal MIC90: > 117.5 µM
[2]; [4]
  Modal MIC: > 128 µg/mL
[2]; shown in µM
  Modal MIC: > 117.5 µM
S. aureus (MRSA) 1199B; [4]
  Modal MIC: > 128 µg/mL
S. aureus (MRSA) 1199B; shown in µM
  Modal MIC: > 117.5 µM
S. aureus (MRSA) USA300; [4]
  Modal MIC: > 128 µg/mL
S. aureus (MRSA) USA300; shown in µM
  Modal MIC: > 117.5 µM
P. aeruginosa NCTC 13437; [4]
  Modal MIC: > 128 µg/mL
P. aeruginosa NCTC 13437; shown in µM
  Modal MIC: > 117.5 µM
C. auris TDG 1912
  Modal MIC50: > 117.5 µM
  Modal MIC90: > 117.5 µM
A. baumannii AYE; [4]
  Modal MIC: > 128 µg/mL
A. baumannii AYE; shown in µM
  Modal MIC: > 117.5 µM

## NC[C@H]1O[C@H](O[C@H]2[C@H](O)[C@@H](O[C@H]3O[C@H](CO)[C@@H](O)[C@H](N)[C@H]3O)[C@H](N)C[C@@H]2N)[C@H](N)C[C@@H]1O [Tobramycin, reference compound]
K. pneumoniae M6; Klebsiella pneumoniae, M6, 20 h, read-out: Modal MIC
  MIC: 8 µg/mL (≈ 17.1 µM)
K. pneumoniae NCTC 13368; Klebsiella pneumoniae, NCTC13368, 20 h, read-out: Modal MIC
  MIC: 64 µg/mL (≈ 137 µM)
E. coli NCTC 12923; Escherichia coli, NCTC12923, 20 h, read-out: Modal MIC
  MIC: 16 µg/mL (≈ 34.2 µM)
E. coli LEC001; Escherichia coli, LEC001, 20 h, read-out: Modal MIC
  MIC: 8 µg/mL (≈ 17.1 µM)
[2]; Staphylococcus aureus, 20 h, read-out: Modal MIC
  MIC: 0.5 µg/mL (≈ 1.07 µM)
S. aureus (MRSA) 1199B; Staphylococcus aureus, MRSA, 20 h, read-out: Modal MIC
  MIC: 0.25 µg/mL (≈ 0.535 µM)
[3]; Staphylococcus aureus, read-out: Modal MIC
  MIC: 0.25 to 0.5 µg/mL (≈ 0.535 to 1.07 µM)
P. aeruginosa PAO1; Pseudomonas aeruginosa, PAO1, 20 h, read-out: Modal MIC
  MIC: 2 µg/mL (≈ 4.28 µM)
P. aeruginosa NCTC 13437; Pseudomonas aeruginosa, NCTC13437, 20 h, read-out: Modal MIC
  MIC: 64 µg/mL (≈ 137 µM)
A. baumannii AYE; Acinetobacter baumannii, 20 h, read-out: Modal MIC
  MIC: 64 µg/mL (≈ 137 µM)
A. baumannii ATCC 17978; Acinetobacter baumannii, ATCC17978, 20 h, read-out: Modal MIC
  MIC: 4 µg/mL (≈ 8.56 µM)

## Gentamycin [reference compound]
K. pneumoniae M6; K. pneumoniae M6 (S), MHB, 37 °C, 20 h, OD600, min. three biological repeats
  Modal MIC: 0.25 µg/mL
K. pneumoniae NCTC 13368; [4]
  Modal MIC: 4 µg/mL
E. coli NCTC 12923; E. coli NCTC 12923 (S), MHB, ~5×10^5 CFU/mL, 37 °C, 20 h, OD600, min. three biological repeats
  Modal MIC: 1 µg/mL
E. coli LEC001; E. coli LEC001 (R), MHB, 37 °C, 20 h, OD600, min. three biological repeats
  Modal MIC: 4 µg/mL
[2]; [4]
  Modal MIC: 0.25 µg/mL
S. aureus (MRSA) 1199B; [4]
  Modal MIC: 0.25 µg/mL
[3]; S. aureus (MSSA) ATCC 9144 (S), MHB, 37 °C, OD600, min. three biological repeats
  Modal MIC: 0.25 µg/mL
S. aureus (MRSA) USA300; [4]
  Modal MIC: 4 µg/mL
P. aeruginosa PAO1; P. aeruginosa PAO1 (S), MHB, 37 °C, 20 h, OD600, min. three biological repeats
  Modal MIC: 4 µg/mL
P. aeruginosa NCTC 13437; [4]
  Modal MIC: 256 µg/mL
A. baumannii AYE; [4]
  Modal MIC: > 512 µg/mL
A. baumannii ATCC 17978; A. baumannii ATCC 17978 (S), MHB, 37 °C, 20 h, OD600, min. three biological repeats
  Modal MIC: 0.5 µg/mL
